According to paper PMC9403976, “Elucidating the path to Plasmodium prolyl-tRNA synthetase inhibitors that overcome halofuginone resistance” (Nature Communications, 2022):
Values joined by “and” are separate entries in the source; they are usually repeats but may differ in a detail not shown here. Equal values may be shown once. Read-outs that look alike come from different tables or passages of the source.

Assays:
P. falciparum Dd2-2D4 = assay: P. falciparum asexual blood stage (ABS) growth assay, SYBR Green, 72 h, wild-type parasites; format: cell-based, Plasmodium falciparum; conditions: wildtype (Dd2-2D4); 10 μM
HsProRS = HsProRS (Homo sapiens, UniProt P07814); assay: TR-FRET ligand displacement assay with tracer MAT379 (CoraFluor-1-Halo and anti-His6 antibody formats); format: binding; parameters: made in house; host or cells: E. coli SoluBL-21; conditions: for TR-FRET dose-response, normalized signal (SI Fig 11): individual replicates
Sequence of HsProRS (P07814 996-1512): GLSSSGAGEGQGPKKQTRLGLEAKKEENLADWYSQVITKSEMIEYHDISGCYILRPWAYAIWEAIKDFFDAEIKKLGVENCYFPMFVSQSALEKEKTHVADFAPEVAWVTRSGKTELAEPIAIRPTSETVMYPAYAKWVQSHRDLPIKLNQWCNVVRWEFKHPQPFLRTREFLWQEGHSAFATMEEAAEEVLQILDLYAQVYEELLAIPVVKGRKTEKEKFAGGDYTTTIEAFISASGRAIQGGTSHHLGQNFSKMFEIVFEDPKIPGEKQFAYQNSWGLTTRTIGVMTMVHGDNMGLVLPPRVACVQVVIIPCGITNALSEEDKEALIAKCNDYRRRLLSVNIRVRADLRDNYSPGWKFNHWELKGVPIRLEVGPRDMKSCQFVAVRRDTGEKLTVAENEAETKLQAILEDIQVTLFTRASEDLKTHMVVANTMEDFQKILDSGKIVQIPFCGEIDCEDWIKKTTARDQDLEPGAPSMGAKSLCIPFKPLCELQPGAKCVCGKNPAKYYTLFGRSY

PfcProRS = biological target: T1, PfcProRS (Plasmodium falciparum, UniProt Q8I5R7); format: binding; conditions: for dose-response signal (normalized), SI Fig 8: single replicates; for PfcProRS -- best Kd: SI Fig 16a, values on -log scale; for Normalized response, dose-response replicates (SI Fig 14): replicates 1-3
T1 construct: made in house; host or cells: E. coli SoluBL-21
T1 sequence (Q8I5R7 249-746): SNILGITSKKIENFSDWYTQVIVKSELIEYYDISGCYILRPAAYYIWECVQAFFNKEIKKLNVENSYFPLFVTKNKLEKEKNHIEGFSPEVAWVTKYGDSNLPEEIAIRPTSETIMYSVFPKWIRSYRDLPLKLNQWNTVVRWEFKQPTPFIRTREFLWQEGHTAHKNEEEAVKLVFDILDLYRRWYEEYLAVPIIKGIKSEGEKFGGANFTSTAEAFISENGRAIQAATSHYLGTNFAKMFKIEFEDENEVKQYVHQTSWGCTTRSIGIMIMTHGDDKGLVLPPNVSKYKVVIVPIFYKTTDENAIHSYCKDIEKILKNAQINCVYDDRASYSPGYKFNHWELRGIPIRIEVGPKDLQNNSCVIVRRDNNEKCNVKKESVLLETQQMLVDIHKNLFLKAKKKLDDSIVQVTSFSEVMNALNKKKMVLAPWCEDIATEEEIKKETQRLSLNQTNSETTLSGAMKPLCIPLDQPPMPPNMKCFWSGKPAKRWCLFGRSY

C[C@@H]1CCC[C@H](C)N1C(=O)Nc1nccnc1C(=O)NC1Cc2ccccc2C1 [compound 19]
% signal at 10 μM, wildtype (Dd2-2D4) (P. falciparum Dd2-2D4): 67.3% | IC50 (HsProRS): > 10 µM | Kd (HsProRS; HsProRS (KD [nM]) + 100 μM proline mean, + 100 μM proline): 1320 nM | normalized TR-FRET ligand displacement signal, dose-response replicates (SI Fig 6) (HsProRS; Log[inhibitor] (M) -5.000): 6.53E-01 and 6.39E-01 and 5.91E-01 | TR-FRET dose-response, normalized signal (SI Fig 11) (HsProRS; Log[inhibitor] (M) -5.000): 8.15E-01 and 7.82E-01 and 8.24E-01 | normalized TR-FRET ligand displacement signal, dose-response replicates (SI Fig 6) (HsProRS; Log[inhibitor] (M) -5.301): 8.82E-01 and 7.60E-01 and 7.73E-01 | TR-FRET dose-response, normalized signal (SI Fig 11) (HsProRS; Log[inhibitor] (M) -5.301): 9.03E-01 and 8.79E-01 and 9.19E-01 | normalized TR-FRET ligand displacement signal, dose-response replicates (SI Fig 6) (HsProRS; Log[inhibitor] (M) -5.601): 8.80E-01 (2×) and 8.74E-01 | TR-FRET dose-response, normalized signal (SI Fig 11) (HsProRS; Log[inhibitor] (M) -5.602): 9.30E-01 and 1.01E+00 and 9.11E-01 | normalized TR-FRET ligand displacement signal, dose-response replicates (SI Fig 6) (HsProRS; Log[inhibitor] (M) -5.904): 9.78E-01 and 8.58E-01 and 8.56E-01 | TR-FRET dose-response, normalized signal (SI Fig 11) (HsProRS; Log[inhibitor] (M) -5.904): 9.97E-01 and 1.07E+00 and 9.73E-01 | TR-FRET dose-response, normalized signal (SI Fig 11) (HsProRS; Log[inhibitor] (M) -6.205): 1.07E+00 and 9.89E-01 and 1.03E+00 | normalized TR-FRET ligand displacement signal, dose-response replicates (SI Fig 6) (HsProRS; Log[inhibitor] (M) -6.208): 1.01E+00 and 9.70E-01 and 9.45E-01 | TR-FRET dose-response, normalized signal (SI Fig 11) (HsProRS; Log[inhibitor] (M) -6.506): 1.02E+00 and 1.05E+00 and 9.88E-01 | normalized TR-FRET ligand displacement signal, dose-response replicates (SI Fig 6) (HsProRS; Log[inhibitor] (M) -6.509): 9.25E-01 and 1.05E+00 and 8.66E-01 | normalized TR-FRET ligand displacement signal, dose-response replicates (SI Fig 6) (HsProRS; Log[inhibitor] (M) -6.796): 1.10E+00 and 9.97E-01 and 1.01E+00 | TR-FRET dose-response, normalized signal (SI Fig 11) (HsProRS; Log[inhibitor] (M) -6.796): 9.68E-01 and 1.04E+00 and 9.56E-01 | TR-FRET dose-response, normalized signal (SI Fig 11) (HsProRS; Log[inhibitor] (M) -7.097): 1.08E+00 (2×) and 9.97E-01 | normalized TR-FRET ligand displacement signal, dose-response replicates (SI Fig 6) (HsProRS; Log[inhibitor] (M) -7.108): 1.04E+00 (2×) and 1.01E+00 | TR-FRET dose-response, normalized signal (SI Fig 11) (HsProRS; Log[inhibitor] (M) -7.407): 1.09E+00 and 9.94E-01 and 1.12E+00 | normalized TR-FRET ligand displacement signal, dose-response replicates (SI Fig 6) (HsProRS; Log[inhibitor] (M) -7.409): 9.88E-01 and 9.12E-01 and 1.00E+00 | TR-FRET dose-response, normalized signal (SI Fig 11) (HsProRS; Log[inhibitor] (M) -7.708): 1.07E+00 and 1.00E+00 and 1.08E+00 | normalized TR-FRET ligand displacement signal, dose-response replicates (SI Fig 6) (HsProRS; Log[inhibitor] (M) -7.710): 9.99E-01 and 1.02E+00 and 9.53E-01 | normalized TR-FRET ligand displacement signal, dose-response replicates (SI Fig 6) (HsProRS; Log[inhibitor] (M) -8.000): 9.74E-01 and 8.92E-01 and 8.64E-01 | TR-FRET dose-response, normalized signal (SI Fig 11) (HsProRS; Log[inhibitor] (M) -8.018): 1.06E+00 and 1.03E+00 and 1.01E+00 | normalized TR-FRET ligand displacement signal, dose-response replicates (SI Fig 6) (HsProRS; Log[inhibitor] (M) -8.301): 9.68E-01 and 9.13E-01 and 9.38E-01 | TR-FRET dose-response, normalized signal (SI Fig 11) (HsProRS; Log[inhibitor] (M) -8.319): 9.44E-01 and 9.92E-01 and 9.43E-01 | normalized TR-FRET ligand displacement signal, dose-response replicates (SI Fig 6) (HsProRS; Log[inhibitor] (M) -8.602): 9.46E-01 and 9.29E-01 and 1.00E+00 | TR-FRET dose-response, normalized signal (SI Fig 11) (HsProRS; Log[inhibitor] (M) -8.620): 1.03E+00 and 1.01E+00 and 7.25E-01 | TR-FRET dose-response, normalized signal (SI Fig 11) (HsProRS; Log[inhibitor] (M) -8.921): 1.02E+00 and 9.26E-01 and 9.67E-01 | normalized TR-FRET ligand displacement signal, dose-response replicates (SI Fig 6) (HsProRS; Log[inhibitor] (M) -9.000): 9.21E-01 and 9.72E-01 and 9.38E-01 | TR-FRET dose-response, normalized signal (SI Fig 11) (HsProRS; Log[inhibitor] (M) -9.097): 9.79E-01 and 1.10E+00 and 1.04E+00 | normalized TR-FRET ligand displacement signal, dose-response replicates (SI Fig 6) (HsProRS; Log[inhibitor] (M) -9.301): 8.73E-01 and 8.54E-01 and 9.42E-01 | HsProRS % signal at 10 μM (HsProRS; no added proline/ATP (-), 10 μM): 80.7% | dose-response signal (normalized), SI Fig 8 (PfcProRS; Log[inhibitor] (M) -5.000): 3.96E-01 and 1.71E-01 and 2.62E-01 | dose-response signal (normalized), SI Fig 8 (PfcProRS; Log[inhibitor] (M) -5.301): 5.52E-01 and 5.02E-01 and 5.09E-01 | dose-response signal (normalized), SI Fig 8 (PfcProRS; Log[inhibitor] (M) -5.601): 8.00E-01 and 7.91E-01 and 8.42E-01 | dose-response signal (normalized), SI Fig 8 (PfcProRS; Log[inhibitor] (M) -5.904): 7.54E-01 and 9.47E-01 and 8.47E-01 | dose-response signal (normalized), SI Fig 8 (PfcProRS; Log[inhibitor] (M) -6.208): 1.02E+00 and 9.13E-01 and 1.08E+00 | dose-response signal (normalized), SI Fig 8 (PfcProRS; Log[inhibitor] (M) -6.509): 9.59E-01 and 1.03E+00 and 9.76E-01 | dose-response signal (normalized), SI Fig 8 (PfcProRS; Log[inhibitor] (M) -6.796): 1.09E+00 and 1.00E+00 and 1.08E+00 | dose-response signal (normalized), SI Fig 8 (PfcProRS; Log[inhibitor] (M) -7.108): 9.66E-01 and 9.00E-01 and 9.04E-01 | dose-response signal (normalized), SI Fig 8 (PfcProRS; Log[inhibitor] (M) -7.409): 9.53E-01 and 1.01E+00 and 9.35E-01 | dose-response signal (normalized), SI Fig 8 (PfcProRS; Log[inhibitor] (M) -7.710): 1.09E+00 and 9.53E-01 and 1.01E+00 | dose-response signal (normalized), SI Fig 8 (PfcProRS; Log[inhibitor] (M) -8.000): 1.12E+00 and 1.07E+00 and 9.69E-01 | dose-response signal (normalized), SI Fig 8 (PfcProRS; Log[inhibitor] (M) -8.301): 1.02E+00 (2×) and 1.14E+00 | dose-response signal (normalized), SI Fig 8 (PfcProRS; Log[inhibitor] (M) -8.602): 1.07E+00 and 8.94E-01 and 1.04E+00 | dose-response signal (normalized), SI Fig 8 (PfcProRS; Log[inhibitor] (M) -9.000): 1.15E+00 and 8.96E-01 and 9.87E-01 | dose-response signal (normalized), SI Fig 8 (PfcProRS; Log[inhibitor] (M) -9.301): 8.48E-01 and 9.64E-01 and 1.02E+00 | PfcProRS -- best Kd (PfcProRS): 5.928

NCCCCCC(=O)NCC1CCN(C(=O)Nc2nccnc2C(=O)NC2Cc3ccccc3C2)CC1 [compound 44]
% signal at 10 μM, wildtype (Dd2-2D4) (P. falciparum Dd2-2D4): 51.4% | Kd (HsProRS; HsProRS (KD [nM]) mean, no added proline/ATP (-)): 1570 nM | Kd (HsProRS; HsProRS - best Kd, SI Fig 16a, values on -log scale): 330 nM | Normalized response, dose-response replicates (SI Fig 14) (PfcProRS; Log[inhibitor] (M) -5.000): 5.04E-02 and 6.61E-02 and 1.21E-01 | Normalized response, dose-response replicates (SI Fig 14) (PfcProRS; Log[inhibitor] (M) -5.301): 2.04E-01 and 9.30E-02 and 7.91E-02 | Normalized response, dose-response replicates (SI Fig 14) (PfcProRS; Log[inhibitor] (M) -5.601): 1.77E-01 and 2.33E-01 and 2.91E-01 | Normalized response, dose-response replicates (SI Fig 14) (PfcProRS; Log[inhibitor] (M) -5.904): 3.70E-01 and 3.87E-01 and 3.95E-01 | Normalized response, dose-response replicates (SI Fig 14) (PfcProRS; Log[inhibitor] (M) -6.208): 5.30E-01 and 6.18E-01 and 4.52E-01 | Normalized response, dose-response replicates (SI Fig 14) (PfcProRS; Log[inhibitor] (M) -6.509): 5.98E-01 and 6.58E-01 and 5.97E-01 | Normalized response, dose-response replicates (SI Fig 14) (PfcProRS; Log[inhibitor] (M) -6.796): 8.14E-01 and 8.03E-01 and 8.36E-01 | Normalized response, dose-response replicates (SI Fig 14) (PfcProRS; Log[inhibitor] (M) -7.108): 7.21E-01 and 9.08E-01 and 7.69E-01 | Normalized response, dose-response replicates (SI Fig 14) (PfcProRS; Log[inhibitor] (M) -7.409): 9.22E-01 and 9.63E-01 and 8.84E-01 | Normalized response, dose-response replicates (SI Fig 14) (PfcProRS; Log[inhibitor] (M) -7.710): 9.26E-01 and 9.41E-01 and 9.94E-01 | Normalized response, dose-response replicates (SI Fig 14) (PfcProRS; Log[inhibitor] (M) -8.000): 9.86E-01 and 9.96E-01 and 9.45E-01 | Normalized response, dose-response replicates (SI Fig 14) (PfcProRS; Log[inhibitor] (M) -8.301): 1.01E+00 and 1.07E+00 and 1.09E+00 | Normalized response, dose-response replicates (SI Fig 14) (PfcProRS; Log[inhibitor] (M) -8.602): 1.05E+00 and 9.10E-01 and 8.68E-01 | Normalized response, dose-response replicates (SI Fig 14) (PfcProRS; Log[inhibitor] (M) -9.000): 8.54E-01 and 1.03E+00 and 1.01E+00 | Normalized response, dose-response replicates (SI Fig 14) (PfcProRS; Log[inhibitor] (M) -9.301): 1.02E+00 and 8.64E-01 and 7.91E-01 | PfcProRS -- best Kd (PfcProRS): 6.569
